In ChEMBL document CHEMBL4840359, “N-Terminus to Arginine Side-Chain Cyclization of Linear Peptidic Neuropeptide Y Y4 Receptor Ligands Results in Picomolar Binding Constants” (J Med Chem, 2021):
Activity calls are given as the source filed them. The calls are words filed in the database; no cut-off is given here. Starred links: 1 amine or outer side, 2 acyl side, 3 side chain; linkers in the order of their positions; H or OH if unused. Residues, ends and D or L forms follow the SMILES beside them. Groups on a side chain read outwards from the residue. *: point of attachment. Suc = O=C(CCC(=O)[*:2])[*:1]; NH(CH2)4NH2 = NCCCCN*; CO = O=C([*:1])[*:2]

Legend:
[1] = molecular target: T1, Neuropeptide Y receptor type 4 (Homo sapiens, UniProt P50391); experiment: Agonist activity at human neuropeptide Y Y4 receptor expressed in CHO-mtAEQ cells co-expressing Gqi5 by calcium aequorin assay; assay type: functional, cell-based
[2] = molecular target: T1, Neuropeptide Y receptor type 4; experiment: Intrinsic activity at human neuropeptide Y Y4 receptor expressed in HEK293T-ARRB1 cells assessed as stimulation of beta-arrestin 1 recruitment by multimode plate reader relative to hPP; assay type: functional, cell-based
[3] = molecular target: T1, Neuropeptide Y receptor type 4; experiment: Displacement of [3H]UR-KK200 from human neuropeptide Y Y4 receptor expressed in CHO-mtAEQ cells co-expressing Gqi5 assessed as fold change in affinity measured after 90 mins by scintillation counting analysis relative to Ac-Arg-Tyr-Arg-Leu-Arg-Tyr-NH2; assay type: cell-based; conditions: filed as agonist
[4] = molecular target: T1, Neuropeptide Y receptor type 4; experiment: Agonist activity at human neuropeptide Y Y4 receptor expressed in HEK293T-ARRB2 cells assessed as stimulation of beta-arrestin 2 recruitment by multimode plate reader; assay type: functional, cell-based
[5] = molecular target: T1, Neuropeptide Y receptor type 4; experiment: Displacement of [3H]UR-KK200 from human neuropeptide Y Y4 receptor expressed in CHO-mtAEQ cells co-expressing Gqi5 measured after 90 mins by scintillation counting analysis; assay type: cell-based
[6] = molecular target: T1, Neuropeptide Y receptor type 4; experiment: Agonist activity at human neuropeptide Y Y4 receptor expressed in HEK293T-ARRB1 cells assessed as stimulation of beta-arrestin 1 recruitment by multimode plate reader; assay type: functional, cell-based
[7] = molecular target: T1, Neuropeptide Y receptor type 4; experiment: Intrinsic activity at human neuropeptide Y Y4 receptor expressed in HEK293T-ARRB2 cells assessed as stimulation of beta-arrestin 2 recruitment by multimode plate reader relative to hPP; assay type: functional, cell-based
[8] = molecular target: T1, Neuropeptide Y receptor type 4; experiment: Intrinsic activity at human neuropeptide Y Y4 receptor expressed in CHO-mtAEQ cells co-expressing Gqi5 by calcium aequorin assay; assay type: functional, cell-based
Homo sapiens [9] = organism: Homo sapiens; experiment: Selectivity ratio, Ki for displacement of [3H]propionyl-pNPY from human neuropeptide Y Y5 receptor in human HEC-1B cells measured after 90 mins by scintillation counting analysis to Ki for displacement of [3H]UR-KK200 from human neuropeptide Y Y4 receptor expressed in CHO-mtAEQ cells co-expressing Gqi5 measured after 90 mins by scintillation counting analysis; assay type: cell-based
Homo sapiens [10] = organism: Homo sapiens; experiment: Selectivity ratio, Ki for displacement of [3H]UR-MK299 from human neuropeptide Y Y2 receptor expressed in CHO cells measured after 90 mins by scintillation counting analysis to Ki for displacement of [3H]UR-KK200 from human neuropeptide Y Y4 receptor expressed in CHO-mtAEQ cells co-expressing Gqi5 measured after 90 mins by scintillation counting analysis; assay type: cell-based
[11] = molecular target: T2, Neuropeptide Y receptor type 2 (Homo sapiens, UniProt P49146); experiment: Displacement of [3H]UR-MK299 from human neuropeptide Y Y2 receptor expressed in CHO cells measured after 90 mins by scintillation counting analysis; assay type: cell-based
T2 sequence (P49146 whole entry): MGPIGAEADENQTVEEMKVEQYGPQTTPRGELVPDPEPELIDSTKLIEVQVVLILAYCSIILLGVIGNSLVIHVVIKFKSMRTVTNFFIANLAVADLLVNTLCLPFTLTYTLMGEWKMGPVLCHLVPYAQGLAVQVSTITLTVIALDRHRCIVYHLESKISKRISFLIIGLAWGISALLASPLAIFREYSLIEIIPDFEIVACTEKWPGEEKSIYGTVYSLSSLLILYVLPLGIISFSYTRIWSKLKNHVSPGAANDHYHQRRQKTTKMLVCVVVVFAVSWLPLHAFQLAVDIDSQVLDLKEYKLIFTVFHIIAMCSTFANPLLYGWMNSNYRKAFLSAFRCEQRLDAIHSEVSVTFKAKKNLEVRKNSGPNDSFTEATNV

[12] = molecular target: T3, Neuropeptide Y receptor type 5 (Homo sapiens, UniProt Q15761); experiment: Displacement of [3H]propionyl-pNPY from human neuropeptide Y Y5 receptor in human HEC-1B cells measured after 90 mins by scintillation counting analysis; assay type: cell-based, HEC-1B cell line
T3 sequence (Q15761 whole entry): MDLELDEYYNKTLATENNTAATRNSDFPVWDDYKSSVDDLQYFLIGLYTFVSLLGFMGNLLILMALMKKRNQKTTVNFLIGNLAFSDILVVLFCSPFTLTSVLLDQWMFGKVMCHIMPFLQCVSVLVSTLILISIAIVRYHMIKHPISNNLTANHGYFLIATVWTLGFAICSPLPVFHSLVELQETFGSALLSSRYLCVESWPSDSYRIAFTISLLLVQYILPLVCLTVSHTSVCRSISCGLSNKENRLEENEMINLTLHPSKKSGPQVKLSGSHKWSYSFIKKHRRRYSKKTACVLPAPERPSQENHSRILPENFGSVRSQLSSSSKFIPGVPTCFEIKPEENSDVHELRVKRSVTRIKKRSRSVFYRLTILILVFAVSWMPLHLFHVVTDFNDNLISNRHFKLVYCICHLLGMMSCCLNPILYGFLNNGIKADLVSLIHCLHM

Homo sapiens [13] = organism: Homo sapiens; experiment: Selectivity ratio, Ki for displacement of [3H]UR-MK299 from human neuropeptide Y Y1 receptor in human SK-N-MC cells measured after 90 mins by scintillation counting analysis to Ki for displacement of [3H]UR-KK200 from human neuropeptide Y Y4 receptor expressed in CHO-mtAEQ cells co-expressing Gqi5 measured after 90 mins by scintillation counting analysis; assay type: cell-based
[14] = molecular target: T4, Neuropeptide Y receptor type 1 (Homo sapiens, UniProt P25929); experiment: Displacement of [3H]UR-MK299 from human neuropeptide Y Y1 receptor in human SK-N-MC cells measured after 90 mins by scintillation counting analysis; assay type: cell-based
T4 sequence (P25929 whole entry): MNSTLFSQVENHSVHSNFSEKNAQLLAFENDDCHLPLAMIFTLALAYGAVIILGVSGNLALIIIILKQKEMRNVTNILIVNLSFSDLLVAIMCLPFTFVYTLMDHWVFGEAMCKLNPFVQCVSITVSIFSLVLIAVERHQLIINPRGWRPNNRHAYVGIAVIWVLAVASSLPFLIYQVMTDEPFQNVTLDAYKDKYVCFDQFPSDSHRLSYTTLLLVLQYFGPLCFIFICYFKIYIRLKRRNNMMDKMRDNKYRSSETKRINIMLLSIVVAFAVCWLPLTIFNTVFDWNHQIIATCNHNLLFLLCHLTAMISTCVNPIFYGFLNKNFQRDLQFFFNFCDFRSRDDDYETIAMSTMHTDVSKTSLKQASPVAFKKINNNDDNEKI

T1 sequence (P50391 whole entry): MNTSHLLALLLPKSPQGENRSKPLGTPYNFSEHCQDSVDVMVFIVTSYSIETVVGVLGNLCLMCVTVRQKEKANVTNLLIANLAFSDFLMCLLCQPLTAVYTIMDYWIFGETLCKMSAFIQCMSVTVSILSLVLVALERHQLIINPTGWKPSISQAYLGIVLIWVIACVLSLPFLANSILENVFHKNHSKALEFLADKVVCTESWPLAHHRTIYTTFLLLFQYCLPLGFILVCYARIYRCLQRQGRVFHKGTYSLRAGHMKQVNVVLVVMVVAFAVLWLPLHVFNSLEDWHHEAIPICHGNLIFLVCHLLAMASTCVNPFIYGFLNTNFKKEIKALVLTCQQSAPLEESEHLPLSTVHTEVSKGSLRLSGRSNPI

SMILES	EC50 [1] [µM]	Intrinsic activity [2]	fold change (FC) [3]	EC50 [4] [µM]	Ki ([5]; read-out: Ki) [µM]	EC50 ([6]; read-out: pEC50 (converted)) [µM]	Intrinsic activity [7]	Intrinsic activity [8]	Ki ([11]; read-out: Ki) [µM]	Ki ([11]; read-out: pKi (converted)) [µM]	EC50 ([6]; read-out: EC50) [µM]	Ki ([12]; hec-1b cell line, read-out: Ki) [µM]	Ki ([12]; read-out: pKi (converted)) [µM]	Ki ([14]; read-out: pKi (converted)) [µM]	Ki ([5]; read-out: pKi (converted)) [µM]	Selectivity ratio (Homo sapiens [9])	Selectivity ratio (Homo sapiens [10])	Selectivity ratio (Homo sapiens [13])	further results
N=C(N)NCCC[C@@H]1NC(=O)CCC(=O)NCCCCNC(=O)NC(=N)NCCC[C@@H](C(=O)N[C@@H](Cc2c[nH]c3ccccc23)C(=O)N[C@@H](CCCNC(=N)N)C(=O)N[C@@H](Cc2ccc(O)cc2)C(N)=O)NC(=O)[C@H](Cc2ccc(O)cc2)NC1=O (HELM PEPTIDE1{R.Y.[N=C(NCCC[C@H](N[*:1])C(=O)[*:2])N[*:3]].W.R.Y.[am]}|CHEM1{[O=C(CCC(=O)[*:1])NCCCCNC(=O)[*:2]]}$PEPTIDE1,CHEM1,1:R1-1:R1|PEPTIDE1,CHEM1,3:R3-1:R2$$$V2.0)	0.191	84%	2.1	0.0955	0.0016	–	83%	61%	> 10	> 10	0.13	> 10	> 10	> 10	–	> 6200	> 6200	> 1800	Ki ([14]; read-out: Ki): > 3 µM
CC(C)C[C@H](NC(=O)[C@H](CCCNC(=N)NC(=O)NCCCCN)NC(=O)[C@H](Cc1ccc(O)cc1)NC(=O)[C@H](CCCCN)NC(=O)CCC(=O)O)C(=O)N[C@@H](CCCNC(=N)N)C(=O)N[C@@H](Cc1ccc(O)cc1)C(N)=O (Suc-KYR([CO-NH(CH2)4NH2])LRY-NH2)	–	57%	-2.1	0.295	0.0071	–	61%	–	> 10	> 10	0.27	> 10	> 10	> 10	0.00692	> 1000	> 1400	> 1400	Ki ([14]; sk-n-mc, read-out: Ki): > 10 µM
CC(C)C[C@H](NC(=O)[C@@H]1CCCNC(=N)NC(=O)NCCCCNC(=O)CCC(=O)N[C@@H](CCCNC(=N)N)C(=O)N1)C(=O)N[C@@H](CCCNC(=N)N)C(=O)N[C@@H](Cc1ccc(O)cc1)C(N)=O (HELM PEPTIDE1{R.[N=C(NCCC[C@H](N[*:1])C(=O)[*:2])N[*:3]].L.R.Y.[am]}|CHEM1{[O=C(CCC(=O)[*:1])NCCCCNC(=O)[*:2]]}$PEPTIDE1,CHEM1,1:R1-1:R1|PEPTIDE1,CHEM1,2:R3-1:R2$$$V2.0)	0.363	87%	2.4	0.0933	0.0014	–	83%	61%	> 3	> 3.16	0.18	–	> 1000	> 3.16	–	> 7100	> 2100	> 2100	Ki ([12]; read-out: Ki): > 10 µM; Ki ([14]; read-out: Ki): > 3 µM
CC(C)C[C@H](NC(=O)[C@H](CCCNC(=N)NC(=O)NCCCCN)NC(=O)[C@H](CCCNC(=N)N)NC(=O)CCC(=O)O)C(=O)N[C@@H](CCCNC(=N)N)C(=O)N[C@@H](Cc1ccc(O)cc1)C(N)=O (Suc-RR([CO-NH(CH2)4NH2])LRY-NH2)	–	71%	-2.9	0.759	0.01	–	60%	–	> 10	> 10	0.99	–	> 10	> 10	–	> 1000	> 1000	> 1000	Ki ([14]; sk-n-mc, read-out: Ki): > 10 µM
CC(=O)N[C@@H](CCCNC(=N)N)C(=O)N[C@@H](Cc1ccc(O)cc1)C(=O)N[C@@H](CCCNC(=N)N)C(=O)N[C@@H](CC(C)C)C(=O)N[C@@H](CCCNC(=N)N)C(=O)N[C@@H](Cc1ccc(O)cc1)C(N)=O	–	55%	–	–	–	–	61%	75%	–	> 3.16	–	–	> 3.16	> 3.16	–	> 830	> 830	> 830	–

Second part, led by results:

EC50 [1] [µM]	Intrinsic activity [2]	fold change (FC) [3]	EC50 [4] [µM]	Ki ([5]; read-out: Ki) [µM]	EC50 ([6]; read-out: pEC50 (converted)) [µM]	Intrinsic activity [7]	Intrinsic activity [8]	Ki ([11]; read-out: Ki) [µM]	Ki ([11]; read-out: pKi (converted)) [µM]	EC50 ([6]; read-out: EC50) [µM]	Ki ([12]; hec-1b cell line, read-out: Ki) [µM]	Ki ([12]; read-out: pKi (converted)) [µM]	Ki ([14]; read-out: pKi (converted)) [µM]	Ki ([5]; read-out: pKi (converted)) [µM]	SMILES	Selectivity ratio (Homo sapiens [9])	Selectivity ratio (Homo sapiens [10])	Selectivity ratio (Homo sapiens [13])	further results
> 10	inactive	-41	> 10	0.14	> 10	inactive	inactive	–	–	–	–	–	–	–	CC(C)C[C@@H]1NC(=O)[C@H](CCCNC(=N)N)NC(=O)[C@H](Cc2ccc(O)cc2)NC(=O)[C@H](CCCNC(=N)N)NC(=O)CCC(=O)NCCCNC(=O)NC(=N)NCCC[C@@H](C(=O)N[C@@H](Cc2ccc(O)cc2)C(N)=O)NC1=O	–	–	–	–
0.178	61%	5.2	0.129	0.00066	–	71%	65%	> 10	> 10	0.05	> 10	> 10	> 10	0.000646	CC(C)C[C@H](NC(=O)[C@H](CCCNC(=N)NC(=O)NCCCN)NC(=O)[C@H](Cc1ccc(O)cc1)NC(=O)[C@H](CCCNC(=N)N)NC(=O)CCC(=O)O)C(=O)N[C@@H](CCCNC(=N)N)C(=O)N[C@@H](Cc1ccc(O)cc1)C(N)=O	> 15000	> 15000	> 15000	–
> 10	inactive	-50	> 10	0.17	> 10	inactive	inactive	–	–	–	–	–	–	0.138	CC(C)C[C@H](NC(=O)[C@@H]1CC(=O)NCC(=O)N[C@H](CCCNC(=N)N)C(=O)N[C@@H](CCCNC(=N)N)C(=O)N1)C(=O)N[C@@H](CCCNC(=N)N)C(=O)N[C@@H](Cc1ccc(O)cc1)C(N)=O	–	–	–	–
> 10	inactive	-16	> 10	0.053	> 10	inactive	inactive	–	–	–	–	–	–	–	CC(C)C[C@H](NC(=O)[C@H](CCCNC(=N)N)NC(=O)[C@H](Cc1ccc(O)cc1)NC(=O)[C@H](CCCNC(=N)N)NC(=O)CCC(=O)O)C(=O)N[C@@H](CCCNC(=N)NC(=O)NCCCN)C(=O)N[C@@H](Cc1ccc(O)cc1)C(N)=O	–	–	–	–
